SMILES strings stand for the structures. The source made the active and inactive calls. The calls are words filed in the database; no cut-off is given here. Where a SMILES comes first, the peptide text is derived from it. The star is where a group is joined. X1 = [N-]=[N+]=Nc1ccc(C(=O)NCCN2C(=O)CC(*)C2=O)c(O)c1; Biotin = O=C1N[C@H]2[C@H](CS[C@H]2CCCCC(=O)*)N1

What all share (type): cell-based
Experiment [1] concerns the target KiSS-1 receptor (Homo sapiens) (UniProt Q969F8). Nature of the experiment: Binding affinity to GPR54 in HEK293 cells at 500 nM incubated for 1 hr followed by UV irradiation for 30 secs by Western blot analysis. (In general: Immunoblotting shows a protein as a band on a membrane.)
For experiment [2] the target is unchanged. Put plainly: Binding affinity to GPR54 in HEK293 cells at 500 nM incubated for 1 hr followed by UV irradiation for 30 secs by Western blot analysis in presence of PNGase F.
The target is the same in experiment [3]. Nature of the experiment: Competitive binding affinity to GPR54 in HEK293 cells at 500 nM incubated for 1 hr followed by UV irradiation for 30 secs by Western blot analysis in presence of unlabeled Kp-10.

KiSS-1 receptor (Homo sapiens), sequence (Q969F8 whole entry): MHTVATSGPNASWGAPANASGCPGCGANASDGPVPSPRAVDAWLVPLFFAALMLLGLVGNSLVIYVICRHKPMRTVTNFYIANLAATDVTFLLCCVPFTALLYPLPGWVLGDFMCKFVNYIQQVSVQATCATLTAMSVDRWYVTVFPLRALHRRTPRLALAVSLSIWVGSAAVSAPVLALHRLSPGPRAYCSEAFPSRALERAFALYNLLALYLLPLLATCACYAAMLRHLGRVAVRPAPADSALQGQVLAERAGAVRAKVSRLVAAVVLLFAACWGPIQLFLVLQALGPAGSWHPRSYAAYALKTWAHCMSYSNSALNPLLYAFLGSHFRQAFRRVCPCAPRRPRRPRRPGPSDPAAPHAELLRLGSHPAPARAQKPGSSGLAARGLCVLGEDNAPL

For `CC(C)C[C@H](NC(=O)CNC(=O)[C@H](Cc1ccccc1)NC(=O)[C@H](CO)NC(=O)[C@H](CC(N)=O)NC(=O)[C@H](Cc1c[nH]c2ccccc12)NC(=O)[C@H](CC(N)=O)NC(=O)[C@H](CSC1CC(=O)N(CCNC(=O)c2ccc(N=[N+]=[N-])cc2O)C1=O)NC(=O)[C@H](CC(N)=O)NC(=O)[C@@H]1CCCN1C(=O)[C@H](CC(C)C)NC(=O)[C@H](CC(=O)O)NC(=O)CCCC[C@@H]1SC[C@@H]2NC(=O)N[C@@H]21)C(=O)N[C@@H](CCCNC(=N)N)C(=O)N[C@@H](Cc1ccccc1)C(N)=O` (some centres undefined) (Biotin-DLPNC(X1)NWNSFGLRF-NH2), the outcome in experiment [1] was inactive.
On the same count and under the same terms, with `CC(C)C[C@H](NC(=O)CNC(=O)[C@H](Cc1ccccc1)NC(=O)[C@H](CO)NC(=O)[C@H](CC(N)=O)NC(=O)[C@H](Cc1c[nH]c2ccccc12)NC(=O)[C@H](CSC1CC(=O)N(CCNC(=O)c2ccc(N=[N+]=[N-])cc2O)C1=O)NC(=O)[C@H](Cc1ccc(O)cc1)NC(=O)[C@H](CC(N)=O)NC(=O)[C@@H]1CCCN1C(=O)[C@H](CC(C)C)NC(=O)[C@H](CC(=O)O)NC(=O)CCCC[C@@H]1SC[C@@H]2NC(=O)N[C@@H]21)C(=O)N[C@@H](CCCNC(=N)N)C(=O)N[C@@H](Cc1ccccc1)C(N)=O` (some centres undefined) (Biotin-DLPNYC(X1)WNSFGLRF-NH2) the entry was “inactive”.
As for `CC(C)C[C@H](NC(=O)CNC(=O)[C@H](Cc1ccccc1)NC(=O)[C@H](CO)NC(=O)[C@H](CC(N)=O)NC(=O)[C@H](CSC1CC(=O)N(CCNC(=O)c2ccc(N=[N+]=[N-])cc2O)C1=O)NC(=O)[C@H](CC(N)=O)NC(=O)[C@H](Cc1ccc(O)cc1)NC(=O)[C@H](CC(N)=O)NC(=O)[C@@H]1CCCN1C(=O)[C@H](CC(C)C)NC(=O)[C@H](CC(=O)O)NC(=O)CCCC[C@@H]1SC[C@@H]2NC(=O)N[C@@H]21)C(=O)N[C@@H](CCCNC(=N)N)C(=O)N[C@@H](Cc1ccccc1)C(N)=O` (some centres undefined) (Biotin-DLPNYNC(X1)NSFGLRF-NH2), the result in experiment [2] and in experiment [3] was inactive.

The values above are taken from ChEMBL document CHEMBL2380268, “Characterization of the receptor binding residues of kisspeptins by positional scanning using peptide photoaffinity probes” (Bioorg Med Chem Lett, 2013).
